Experimental data from patent US12404272B2, “Process for making a PD-1/PD-L1 inhibitor and salts and crystalline forms thereof” (Incyte Corporation, priority 2020, dated 2025).
Where a name gives a salt, the structure may show the parent alone. Blank lines part the entries; values can stand above or below the compound they belong to.

Key:
Format in all cases: physicochemical
[1] = Maturation in solvents (20 vol), dissolution observed; settings: matured RT-50° C. for 3 days
Description: The methanesulfonic acid salt (20 mg) was treated with solvent (20 vol) and matured (RT −50° C., 4 h) for 3 days. Samples were then analyzed by XRPD. Attempts in improve the crystallinity of the scaled up methanesulfonic acid salt was undertaken by subjecting the material to maturation for 72 h in a variety of solvents. A slight improvement in crystallinity was observed from maturing in 2-propanol, ethyl acetate, and tert-butyl methyl ether.

[2] = Static storage at elevated temperature and relative humidity, re-analysis by XRPD
Description: In some examples below, X-Ray Powder Diffraction analysis was carried out on a Bruker D8 X-ray Powder Diffractometer (XRPD) instrument using Cu Kα radiation (40 kV, 40 mA) and a θ-2θ goniometer fitted with a Ge monochromator. The incident beam passes through a 2.0 mm divergence slit followed by a 0.2 mm anti-scatter slit and knife edge. The diffracted beam passes through an 8.0 mm receiving slit with 2.5° Soller slits followed by the Lynxeye Detector. The software used for data collection and analysis was Diffrac Plus XRD Commander and Diffrac Plus EVA respectively. Samples were run under ambient conditions as flat plate specimens using powder as received. The sample was prepared on a polished, zero-background (510) silicon wafer by gently pressing onto the flat surface or packed into a cut cavity. The sample was rotated in its own plane. The general experimental procedures for XRPD were: (1) angular range: 2 to 42° 2θ; (2) step size: 0.05° 2θ; and collection time: 0.5 s/step (total collection time: 6.40 min). The extended data collection experimental procedures for XRPD were: (1) angular range: 3 to 30° 2θ; (2) step size: 0.05° 2θ; and collection time: 4 s/step (total collection time: 38.00 min).
In some examples below, X-Ray Powder Diffraction analysis was carried out on a PANalytical Empyrean X-ray Powder Diffractometer (XRPD) instrument using Cu Kα radiation (45 kV, 40 mA) in transmission geometry. A 0.5° slit, 4 mm mask and 0.04 rad Soller slits with a focusing mirror were used on the incident beam. A PIXcel^3D detector, placed on the diffracted beam, was fitted with a receiving slit and 0.04 rad Soller slits. The software used for data collection was X'Pert Data Collector using X'Pert Operator Interface. The data were analysed and presented using Diffrac Plus EVA or HighScore Plus. Samples were prepared and analysed in either a metal or Millipore 96 well-plate in transmission mode. X-ray transparent film was used between the metal sheets on the metal well-plate and powders (approximately 1-2 mg) were used as received. […]

[3] = Gravimetric vapour sorption (GVS)
Description: Gravimetric Vapour sorption (GVS) was carried out using a SMS DVS Intrinsic moisture sorption analyser, controlled by DVS Intrinsic Control software. The sample temperature was maintained at 25° C. by the instrument controls. The humidity was controlled by mixing streams of dry and wet nitrogen, with a total flow rate of 200 ml/min. The relative humidity was measured by a calibrated Rotronic probe (dynamic range of 1.0-100% RH), located near the sample. The weight change, (mass relaxation) of the sample as a function of % RH was constantly monitored by a microbalance (accuracy ±0.005 mg).
Typically, 5-30 mg of sample was placed in a tared mesh stainless steel basket under ambient conditions. The sample was loaded and unloaded at 40% RH and 25° C. (typical room conditions). A moisture sorption isotherm was performed as outlined below (2 scans per complete cycle). The standard isotherm was performed at 25° C. at 10% RH intervals over a 0-90% RH range. Typically, a double cycle (4 scans) was carried out.
The sample was recovered after completion of the isotherm and re-analysed by XRPD.

- dissolution in solvent ([1]; ethanol): complete dissolution
- dissolution in solvent ([1]; water): complete dissolution
SMILES: Cc1c(Nc2nc(C(F)F)nc3cc(CN4CC[C@@H](O)C4)cnc23)cccc1-c1cccc(-c2nc3cc(CN4CCC(C(=O)O)CC4)cc(C#N)c3o2)c1C [methanesulfonic acid salt, (R)-1-((7-cyano-2-(3′-((2-(difluoromethyl)-7-((3-hydroxypyrrolidin-1-yl)methyl)pyrido[3,2-d]pyrimidin-4-yl)amino)-2,2′-dimethyl-[1,1′-biphenyl]-3-yl)benzo[d]oxazol-5-yl)methyl)piperidine-4-carboxylic acid]

- hygroscopicity ([3]; GVS, 0-90% RH): very hygroscopic
- XRPD analysis following the GVS experiment ([3]; after GVS isotherm): remained unchanged
- weight uptake ([3]; between 0-90% RH, 25° C.): 19.5 % w/w
SMILES: Cc1c(Nc2nc(C(F)F)nc3cc(CN4CC[C@@H](O)C4)cnc23)cccc1-c1cccc(-c2nc3cc(CN4CCC(C(=O)O)CC4)cc(C#N)c3o2)c1C [(R)-1-((7-cyano-2-(3′-((2-(difluoromethyl)-7-((3-hydroxypyrrolidin-1-yl)methyl)pyrido[3,2-d]pyrimidin-4-yl)amino)-2,2′-dimethyl-[1,1′-biphenyl]-3-yl)benzo[d]oxazol-5-yl)methyl)piperidine-4-carboxylic acid]
- XRPD analysis following static storage ([2]; 25° C./97% RH for 5 days): remained unchanged, however a loss in crystallinity was observed
- XRPD analysis following static storage ([2]; 40° C./75% RH for 5 days): remained unchanged, however a loss in crystallinity was observed

- XRPD following static storage ([2]; 7 days at elevated temperature and relative humidity conditions): remained unchanged
SMILES: Cc1c(Nc2nc(C(F)F)nc3cc(CN4CC[C@@H](O)C4)cnc23)cccc1-c1cccc(-c2nc3cc(CN4CCC(C(=O)O)CC4)cc(C#N)c3o2)c1C [Free form Form I, (R)-1-((7-cyano-2-(3′-((2-(difluoromethyl)-7-((3-hydroxypyrrolidin-1-yl)methyl)pyrido[3,2-d]pyrimidin-4-yl)amino)-2,2′-dimethyl-[1,1′-biphenyl]-3-yl)benzo[d]oxazol-5-yl)methyl)piperidine-4-carboxylic acid]
